These results are taken from ChEMBL document CHEMBL5360606, “Discovery of New Binders for DCAF1, an Emerging Ligase Target in the Targeted Protein Degradation Field” (ACS Med Chem Lett, 2023).

Experiment [1] has as its target T1, Polycomb protein EED (Homo sapiens, UniProt O75530). In words: Binding affinity to his-tagged EED (76 to 441 residues) (unknown origin) expressed in Escherichia coli BL21 (DE3) assessed as dissociation constant by SPR analysis.
Experiment [2] concerns the target T1, Polycomb protein EED. The experiment in a line: Binding affinity to his-tagged EED (76 to 441 residues) (unknown origin) expressed in Escherichia coli BL21 (DE3) using H3K27me3 as substrate assessed as dissociation constant.

In general, Kd refers to the free concentration of one partner at which half of the binding sites on the other are occupied at equilibrium, for simple one-to-one binding.

T1 sequence (O75530 whole entry, the tested form may be a part): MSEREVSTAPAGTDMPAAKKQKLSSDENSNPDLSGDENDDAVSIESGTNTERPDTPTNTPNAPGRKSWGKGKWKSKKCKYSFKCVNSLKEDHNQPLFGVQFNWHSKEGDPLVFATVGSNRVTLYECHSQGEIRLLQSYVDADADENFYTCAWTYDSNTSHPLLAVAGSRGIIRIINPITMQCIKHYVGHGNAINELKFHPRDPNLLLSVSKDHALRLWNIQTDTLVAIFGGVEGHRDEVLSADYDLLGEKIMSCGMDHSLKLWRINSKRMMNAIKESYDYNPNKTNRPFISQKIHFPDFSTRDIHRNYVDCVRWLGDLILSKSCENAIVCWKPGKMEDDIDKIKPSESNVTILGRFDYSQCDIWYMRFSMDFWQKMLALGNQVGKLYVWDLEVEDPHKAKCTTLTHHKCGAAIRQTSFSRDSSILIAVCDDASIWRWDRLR

Consider `NC1=NCC(c2cccc(Oc3ccc(Cl)cc3)c2)C1` (centres undefined), for which the Kd in experiment [1] is ~360 µM.
Consider `Fc1ccccc1C1=Cc2ccccc2C2=NCCN12`, for which, in experiment [1], the Kd was 13.5 µM.
For the compound `Clc1ccc(C2(C3=Cc4ccccc4C4=NCCN34)CC2)cc1`, the Kd in experiment [2] is 25 µM.
In the case of `CC(C)(Cc1ccccc1)C1=Cc2ccccc2C2=NCCN12`, the Kd in experiment [2] is 21 µM.
